According to publication PMC3813752 (PLoS ONE, 2013):
“Also recorded” adds a separate entry of the source. Read-outs that look alike come from different tables or passages of the source. Marks after values point to notes of the source that are not given here.

Tests used:
human GPR18 [1] = target: T1, human GPR18 (Homo sapiens, UniProt Q14330); assay: cell-based; conditions: for inhibition at 10 µM: CHO, read-out: % inhibition of Δ9-THC (10 µM)-induced β-arrestin recruitment at GPR18, test compound at 10 µM; for IC50: GPR18 IC50, β-arrestin recruitment, antagonist mode vs. Δ9-THC (10 µM)
T1 sequence (Q14330 1-331): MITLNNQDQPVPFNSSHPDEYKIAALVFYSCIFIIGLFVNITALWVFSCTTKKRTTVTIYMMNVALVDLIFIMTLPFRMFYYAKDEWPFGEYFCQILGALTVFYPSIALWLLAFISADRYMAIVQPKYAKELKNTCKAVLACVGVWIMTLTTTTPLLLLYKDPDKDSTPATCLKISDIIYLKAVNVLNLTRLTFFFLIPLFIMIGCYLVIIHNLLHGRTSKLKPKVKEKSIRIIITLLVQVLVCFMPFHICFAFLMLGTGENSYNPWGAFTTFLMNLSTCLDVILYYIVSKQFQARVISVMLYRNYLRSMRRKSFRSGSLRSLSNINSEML

human CB2 receptor [2] = target: T2, human CB2 receptor (Homo sapiens, UniProt P34972); assay: Radioligand binding (heterologous competition) vs. [3H]CP55,940 at CB2; conditions: Ki CB2, heterologous competition vs. [3H]CP55,940, membranes of CHO cells expressing human CB2; three independent experiments in duplicates
T2 sequence (P34972 whole entry): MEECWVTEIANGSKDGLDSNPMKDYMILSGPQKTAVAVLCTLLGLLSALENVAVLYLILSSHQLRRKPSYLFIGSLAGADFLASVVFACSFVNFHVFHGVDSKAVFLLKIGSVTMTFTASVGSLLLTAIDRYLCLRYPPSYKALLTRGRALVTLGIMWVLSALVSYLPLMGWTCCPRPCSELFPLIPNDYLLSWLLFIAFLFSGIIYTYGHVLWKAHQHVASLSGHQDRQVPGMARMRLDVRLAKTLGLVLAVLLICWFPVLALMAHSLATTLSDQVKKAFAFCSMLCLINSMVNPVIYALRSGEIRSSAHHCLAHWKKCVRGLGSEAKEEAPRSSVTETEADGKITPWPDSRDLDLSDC

human CB1 receptor [3] = target: T3, human CB1 receptor (Homo sapiens, UniProt P21554); assay: biochemical; type: binding; conditions: membranes of CHO cells expressing human CB1; three independent experiments in duplicates; read-out: Ki CB1, heterologous competition vs. [3H]CP55,940
T3 sequence (P21554 whole entry): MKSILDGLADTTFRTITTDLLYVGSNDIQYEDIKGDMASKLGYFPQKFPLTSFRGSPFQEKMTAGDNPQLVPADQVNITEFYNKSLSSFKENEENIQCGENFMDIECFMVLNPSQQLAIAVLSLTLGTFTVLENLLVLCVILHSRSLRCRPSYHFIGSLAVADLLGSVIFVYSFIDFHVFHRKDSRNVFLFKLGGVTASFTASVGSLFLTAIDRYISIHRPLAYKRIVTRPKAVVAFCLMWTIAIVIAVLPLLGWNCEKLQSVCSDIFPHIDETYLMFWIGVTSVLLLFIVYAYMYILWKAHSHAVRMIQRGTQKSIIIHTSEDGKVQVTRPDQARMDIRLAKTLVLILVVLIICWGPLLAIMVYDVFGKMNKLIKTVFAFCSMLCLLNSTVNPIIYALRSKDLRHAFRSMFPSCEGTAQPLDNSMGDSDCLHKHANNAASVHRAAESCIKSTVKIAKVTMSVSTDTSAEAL

human GPR18 [4] = target: T1, human GPR18; conditions: for functional property at GPR18 (agonist/antagonist): in words; for agonist effect on β-arrestin recruitment at GPR18: test compound 10 µM, related to effect of Δ9-THC 10 µM = 100%
human GPR55 = human GPR55 (Homo sapiens, UniProt Q9Y2T6); assay: β-arrestin recruitment assay (PathHunter), CHO cells expressing GPR55; conditions: for inhibition at 10 µM: CHO; for IC50: GPR55 IC50, β-arrestin recruitment, antagonist mode vs. LPI (1 µM); for functional property at GPR55 (agonist/antagonist): in words; for agonist effect on β-arrestin recruitment at GPR55: test compound 10 µM, related to effect of LPI 1 µM = 100%
human GPR55, sequence (Q9Y2T6 whole entry): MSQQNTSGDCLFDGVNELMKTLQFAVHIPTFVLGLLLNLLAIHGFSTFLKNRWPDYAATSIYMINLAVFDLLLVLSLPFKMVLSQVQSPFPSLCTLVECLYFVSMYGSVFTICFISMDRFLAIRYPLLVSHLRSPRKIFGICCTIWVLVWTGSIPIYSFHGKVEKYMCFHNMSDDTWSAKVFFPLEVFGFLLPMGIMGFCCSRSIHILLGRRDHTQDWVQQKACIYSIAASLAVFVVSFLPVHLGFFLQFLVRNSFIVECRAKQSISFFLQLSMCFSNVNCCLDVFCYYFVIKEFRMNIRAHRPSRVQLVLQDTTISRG

human CB1 receptor [5] = target: T3, human CB1 receptor; assay: cAMP accumulation assay, CHO cells expressing CB1; type: cell-based
human CB2 receptor [6] = target: T2, human CB2 receptor; assay: cAMP accumulation assay, CHO cells expressing CB2; type: cell-based; conditions: for functional property at CB2 (agonist/antagonist): in words, standard ligands partly from the literature
[7] = read-out: % inhibition of LPI (1 µM)-induced β-arrestin recruitment at GPR55
[8] = in words, standard ligands partly from the literature
[9] = read-out: % inhibition of LPI (1 µM)-induced β-arrestin recruitment at GPR55, test compound at 10 µM
[10] = at 10 µM, compared to max. effect of full agonist CP55,940 (1 µM) = 100%

Row | Compound | EC50 (human GPR18 [1]) [µM] | inhibition at 10 µM (human GPR18 [1]) [%] | IC50 (human GPR18 [1]) [µM] | Ki (human CB2 receptor [2]) [µM] | Ki (human CB1 receptor [3]) [µM] | functional property at GPR18 (agonist/antagonist) (human GPR18 [4]) | agonist effect on β-arrestin recruitment at GPR18 (human GPR18 [4]) [%] | EC50 (human GPR55) [µM] | inhibition at 10 µM (human GPR55; [7]) [%] | IC50 (human GPR55) [µM] | functional property at GPR55 (agonist/antagonist) (human GPR55) | agonist effect on β-arrestin recruitment at GPR55 (human GPR55) [%] | functional property at CB1 (agonist/antagonist) (human CB1 receptor [5]; [8]) | EC50 (human CB1 receptor [5]; inhibition of forskolin-stimulated cAMP, CHO-hCB1, read-out: EC50 CB1, cAMP accumulation assay) [µM] | EC50 (human CB2 receptor [6]) [µM] | functional property at CB2 (agonist/antagonist) (human CB2 receptor [6]) | inhibition at 10 µM (human GPR55; [9]) [%] | efficacy CB1, cAMP accumulation assay (human CB1 receptor [5]; [10]) | efficacy CB2, cAMP accumulation assay (human CB2 receptor [6]; [10]) | functional property at CB1 (agonist/antagonist) (human CB1 receptor [5])
1 | CCCc1ccc(O)c(-c2cc(CCC)ccc2OC)c1 [Compound 12a, methoxytetrahydromagnolol] | > 10 | 41 | ~10 | 0.221 ± 0.057 | 0.267 ± 0.058 | antagonist | 26 | > 10 | 82 | 4.55 ± 1.08 | antagonist | 0 | Full agonists; also recorded: agonist | 0.622 ± 0.284 | 0.0778 ± 0.0205 | Full agonists; also recorded: agonist |  |  |  | 
2 | COc1ccc(-c2oc3cc(OC)ccc3c2C(=O)c2ccc(C#N)cc2)cc1 [Compound 6, reference compound] | > 10 | 81 | 4.97 ± 1.51 |  |  | antagonist | 0 | > 10 |  | 4.14 ± 1.05 | antagonist | 0 | antagonist |  |  | antagonist | 81 |  |  | 
3 | CCCc1ccc(O)c(-c2cc(CCC)ccc2O)c1 [Compound 12, tetrahydromagnolol] | > 10 | 64 | 30.9 ± 15.8 |  |  | antagonist | 0 | > 10 | 96 | 13.2 ± 4 | antagonist | 24 | agonist |  |  | agonist |  |  |  | 
4 | CCCCCCCc1ccc(O)c(-c2cc(CCC)ccc2O)c1 [Compound 62] | > 10 | 123 | 10.6 ± 0.4 |  |  |  | 0 | > 10 |  | > 10 |  | 5 |  |  |  |  | 17 | (110%)^b | (57%)^b | 
5 | CCCCCCC(C)(C)c1ccc(C2CC(O)CCC2CCCO)c(O)c1 (single isomer, unassigned; (-)) [Compound 4, (-)-cis-3-[2-hydroxy-4-(1,1-dimethylheptyl)phenyl]-trans-4-(3-hydroxypropyl)cyclohexanol, reference compound] | > 10 | 188 | 5.99 ± 1.88 |  |  | inverse agonistic activity; also recorded: antagonist | 0 | > 10 | 93 | 1.61 ± 0.47 | antagonistic activity; also recorded: antagonist | 4 |  |  |  | agonist |  |  |  | agonist
6 | COc1ccc(C(=O)c2c(C)n(CCN3CCOCC3)c3cc(I)ccc23)cc1 [Compound 7, reference compound] | > 10 | 52 | ~10 |  |  | antagonist | 0 | > 10 | 48 | ≥ 10 | antagonist | 22 | agonist |  |  | antagonist |  |  |  | 
